ChEMBL document CHEMBL1201862, “PubChem BioAssay data set” (2004)
The source made the active and inactive calls.

Key:
[1] = tested on: INS1; assay: suppression of NO production in INS-1E cells – cell-based, Griess absorbance, dry powder, dose response (AID 488866); type: functional; conditions: Rattus norvegicus
[2] = suppression of NO production in INS-1E cells – cell-based, Griess absorbance, dry powder, set 3, dose response (AID 488870); type: functional; conditions: Rattus norvegicus
[3] = tested on: INS1; assay: suppression of NO production in INS-1E cells – cell-based, Griess absorbance, dry powder, set 2, dose response (AID 488868); type: functional; conditions: Rattus norvegicus
[4] = tested on: INS1; assay: beta-cell survival under cytokine stress – INS-1E, ATP luminescence, dry powder, dose response (AID 488844); type: functional, cell-based; conditions: Rattus norvegicus
[5] = target: Dual specificity protein kinase CLK4 (Homo sapiens, UniProt Q9HAZ1); type: functional
[6] = target: Glycogen synthase kinase-3 beta (Homo sapiens, UniProt P49841); type: functional;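 note: value comes from a broad kinome profiling panel, with GSK3B as the panel member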
[7] = target: MAP kinase-interacting serine/threonine-protein kinase 2 (Homo sapiens, UniProt Q9HBH9); type: functional
[8] = target: Mitogen-activated protein kinase kinase kinase kinase 4 (Homo sapiens, UniProt O95819); type: functional
[9] = target: Homeodomain-interacting protein kinase 2 (Homo sapiens, UniProt Q9H2X6); type: functional;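 note: measured within a kinome-wide kinase profiling panel, HIPK2 being one panel member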
[10] = target: Serine/threonine-protein kinase pim-1 (Homo sapiens, UniProt P11309); type: functional
[11] = target: Interleukin-1 receptor-associated kinase 4 (Homo sapiens, UniProt Q9NWZ3); type: functional
[12] = target: cAMP-dependent protein kinase catalytic subunit alpha (Homo sapiens, UniProt P17612); type: functional
[13] = target: Cell division cycle 7-related protein kinase (Homo sapiens, UniProt O00311); type: functional;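 note: value obtained from a kinome-wide kinase panel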
[14] = target: Sphingosine 1-phosphate receptor 1 (Homo sapiens, UniProt P21453); assay: Late-stage fluorescence-based dose-response cell-based counterscreen assay to identify agonists of the Sphingosine 1-Phosphate Receptor 4 (S1P4): Sphingosine 1-Phosphate Receptor 1 (S1P1) agonist assay Set 2.; type: functional
[15] = target: Sphingosine 1-phosphate receptor 5 (Homo sapiens, UniProt Q9H228); assay: activation of human S1P5 receptor – cell-based, fluorescence, set 2, counter-screen for S1P4 agonist project, late-stage follow-up (AID 504867); type: functional
[16] = target: Sphingosine 1-phosphate receptor 3 (Homo sapiens, UniProt Q99500); assay: Late-stage fluorescence-based dose-response cell-based counterscreen assay to identify agonists of the Sphingosine 1-Phosphate Receptor 4 (S1P4): Sphingosine 1-Phosphate Receptor 3 (S1P3) agonist assay Set 2.; type: functional
[17] = target: Heat shock protein HSP 90-alpha (Homo sapiens, UniProt P07900); type: functional, organism-based
[18] = target: T1, V-type proton ATPase subunit c' (Saccharomyces cerevisiae S288c, UniProt P32842); assay: Dose Response of Small Molecules that Regulate V-ATPase Proton Transport in Yeast using pHLuorin, Powder Set1.; type: functional; conditions: read-out: EC50_MICROM
[19] = target: T2, Microphthalmia-associated transcription factor (Homo sapiens, UniProt O75030); assay: reducers of TRPM1 reporter luminescence, concentration series – cell-based, SK-MEL-5, cherry-picked, set 3, MITF inhibitor project, dose response (AID 493073); type: functional;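 note: SK-MEL-5 melanoma cells with luciferase driven by the MITF target TRPM1 promoter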
T2 sequence (O75030 whole entry): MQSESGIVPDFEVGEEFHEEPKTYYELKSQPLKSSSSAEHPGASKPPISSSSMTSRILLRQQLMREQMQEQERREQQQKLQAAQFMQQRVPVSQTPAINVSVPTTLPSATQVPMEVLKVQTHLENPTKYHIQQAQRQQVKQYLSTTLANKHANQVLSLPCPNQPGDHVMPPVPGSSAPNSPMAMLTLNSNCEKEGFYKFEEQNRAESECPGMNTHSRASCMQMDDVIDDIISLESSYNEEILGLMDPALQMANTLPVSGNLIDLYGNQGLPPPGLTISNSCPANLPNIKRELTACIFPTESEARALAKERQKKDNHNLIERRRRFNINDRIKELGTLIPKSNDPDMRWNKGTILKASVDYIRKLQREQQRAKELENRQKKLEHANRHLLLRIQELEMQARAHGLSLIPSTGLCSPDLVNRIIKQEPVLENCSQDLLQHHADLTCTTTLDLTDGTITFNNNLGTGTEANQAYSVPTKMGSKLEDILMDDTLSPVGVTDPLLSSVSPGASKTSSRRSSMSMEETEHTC

[20] = target: T1, V-type proton ATPase subunit c'; assay: Dose Response of Small Molecules that Regulate V-ATPase Proton Transport in Yeast using pHLuorin, Cherry Pick 2.; type: functional; conditions: read-out: EC50_MICROM
[21] = target: Megakaryocyte-associated tyrosine-protein kinase (Homo sapiens, UniProt P42679); type: functional;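 note: affinity measured as one member of a kinase panel (Navigating the Kinome) against MATK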
[22] = target: Inhibitor of nuclear factor kappa-B kinase subunit alpha (Homo sapiens, UniProt O15111); type: functional
[23] = target: Mitogen-activated protein kinase 13 (Homo sapiens, UniProt O15264); type: functional
[24] = target: Eukaryotic elongation factor 2 kinase (Homo sapiens, UniProt O00418); type: functional
[25] = target: Misshapen-like kinase 1 (Homo sapiens, UniProt Q8N4C8); type: functional;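 note: kinome panel screen with MINK as the panel member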
[26] = target: Protein kinase C gamma type (Homo sapiens, UniProt P05129); type: functional
[27] = target: Inhibitor of nuclear factor kappa-B kinase subunit beta (Homo sapiens, UniProt O14920); type: functional
[28] = target: Homeodomain-interacting protein kinase 4 (Homo sapiens, UniProt Q8NE63); type: functional
[29] = target: Serine/threonine-protein kinase Nek4 (Homo sapiens, UniProt P51957); type: functional
[30] = target: Dual specificity tyrosine-phosphorylation-regulated kinase 4 (Homo sapiens, UniProt Q9NR20); type: functional
[31] = target: Serine/threonine-protein kinase Chk2 (Homo sapiens, UniProt O96017); type: functional;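 note: CHEK2 entry within a kinome-wide screening panel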
[32] = target: MAP kinase-activated protein kinase 3 (Homo sapiens, UniProt Q16644); type: functional;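 note: value comes from a kinome-wide profiling panel in which MAPKAPK3 is one of the panel members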
Sequence of MAP kinase-activated protein kinase 3 (Q16644 whole entry): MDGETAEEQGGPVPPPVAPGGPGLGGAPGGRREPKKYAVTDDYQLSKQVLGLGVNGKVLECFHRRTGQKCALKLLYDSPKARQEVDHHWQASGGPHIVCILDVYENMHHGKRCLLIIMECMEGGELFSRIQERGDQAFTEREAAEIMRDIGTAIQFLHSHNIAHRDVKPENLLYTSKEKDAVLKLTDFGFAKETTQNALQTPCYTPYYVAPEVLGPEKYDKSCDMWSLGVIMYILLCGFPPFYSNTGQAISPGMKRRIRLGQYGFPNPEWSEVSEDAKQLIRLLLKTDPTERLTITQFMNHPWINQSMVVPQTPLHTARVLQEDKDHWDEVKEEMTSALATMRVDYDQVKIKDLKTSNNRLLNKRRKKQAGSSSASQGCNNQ

T1 sequence (P32842 whole entry): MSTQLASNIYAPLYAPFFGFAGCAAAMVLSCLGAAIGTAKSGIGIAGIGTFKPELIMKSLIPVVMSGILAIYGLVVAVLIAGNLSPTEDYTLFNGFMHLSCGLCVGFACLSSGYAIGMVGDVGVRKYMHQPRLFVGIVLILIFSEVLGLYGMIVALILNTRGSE
Sequence of Homeodomain-interacting protein kinase 2 (Q9H2X6 whole entry): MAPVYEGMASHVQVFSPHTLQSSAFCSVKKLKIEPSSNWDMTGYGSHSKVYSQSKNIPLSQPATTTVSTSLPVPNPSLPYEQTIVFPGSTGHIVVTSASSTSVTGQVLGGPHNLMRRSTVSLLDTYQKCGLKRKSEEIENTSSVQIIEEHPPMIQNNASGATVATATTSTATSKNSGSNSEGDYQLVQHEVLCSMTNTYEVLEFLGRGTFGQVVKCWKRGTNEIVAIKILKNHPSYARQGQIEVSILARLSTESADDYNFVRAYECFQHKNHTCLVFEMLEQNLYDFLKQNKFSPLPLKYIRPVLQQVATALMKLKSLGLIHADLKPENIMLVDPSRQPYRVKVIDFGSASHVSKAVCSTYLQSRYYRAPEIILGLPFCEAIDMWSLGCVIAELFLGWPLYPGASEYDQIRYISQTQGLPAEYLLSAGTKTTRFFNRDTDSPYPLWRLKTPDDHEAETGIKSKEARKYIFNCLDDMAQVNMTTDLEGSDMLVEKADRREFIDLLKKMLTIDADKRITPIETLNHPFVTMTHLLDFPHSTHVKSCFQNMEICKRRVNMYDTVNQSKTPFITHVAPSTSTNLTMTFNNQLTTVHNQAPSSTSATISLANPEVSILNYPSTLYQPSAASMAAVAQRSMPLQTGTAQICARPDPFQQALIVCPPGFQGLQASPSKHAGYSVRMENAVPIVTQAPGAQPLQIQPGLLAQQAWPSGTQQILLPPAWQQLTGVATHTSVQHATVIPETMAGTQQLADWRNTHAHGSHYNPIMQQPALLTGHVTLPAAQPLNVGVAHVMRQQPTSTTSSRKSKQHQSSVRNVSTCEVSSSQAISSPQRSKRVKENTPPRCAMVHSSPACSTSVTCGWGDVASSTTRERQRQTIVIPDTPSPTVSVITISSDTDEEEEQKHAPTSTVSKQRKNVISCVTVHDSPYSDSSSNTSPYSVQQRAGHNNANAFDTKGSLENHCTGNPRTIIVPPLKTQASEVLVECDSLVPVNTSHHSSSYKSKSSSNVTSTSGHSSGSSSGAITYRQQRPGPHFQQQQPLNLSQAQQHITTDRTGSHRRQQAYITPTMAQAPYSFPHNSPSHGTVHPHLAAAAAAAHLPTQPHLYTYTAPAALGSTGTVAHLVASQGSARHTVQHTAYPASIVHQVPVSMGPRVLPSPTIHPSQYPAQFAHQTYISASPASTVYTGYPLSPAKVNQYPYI
Sequence of Serine/threonine-protein kinase Nek4 (P51957 whole entry): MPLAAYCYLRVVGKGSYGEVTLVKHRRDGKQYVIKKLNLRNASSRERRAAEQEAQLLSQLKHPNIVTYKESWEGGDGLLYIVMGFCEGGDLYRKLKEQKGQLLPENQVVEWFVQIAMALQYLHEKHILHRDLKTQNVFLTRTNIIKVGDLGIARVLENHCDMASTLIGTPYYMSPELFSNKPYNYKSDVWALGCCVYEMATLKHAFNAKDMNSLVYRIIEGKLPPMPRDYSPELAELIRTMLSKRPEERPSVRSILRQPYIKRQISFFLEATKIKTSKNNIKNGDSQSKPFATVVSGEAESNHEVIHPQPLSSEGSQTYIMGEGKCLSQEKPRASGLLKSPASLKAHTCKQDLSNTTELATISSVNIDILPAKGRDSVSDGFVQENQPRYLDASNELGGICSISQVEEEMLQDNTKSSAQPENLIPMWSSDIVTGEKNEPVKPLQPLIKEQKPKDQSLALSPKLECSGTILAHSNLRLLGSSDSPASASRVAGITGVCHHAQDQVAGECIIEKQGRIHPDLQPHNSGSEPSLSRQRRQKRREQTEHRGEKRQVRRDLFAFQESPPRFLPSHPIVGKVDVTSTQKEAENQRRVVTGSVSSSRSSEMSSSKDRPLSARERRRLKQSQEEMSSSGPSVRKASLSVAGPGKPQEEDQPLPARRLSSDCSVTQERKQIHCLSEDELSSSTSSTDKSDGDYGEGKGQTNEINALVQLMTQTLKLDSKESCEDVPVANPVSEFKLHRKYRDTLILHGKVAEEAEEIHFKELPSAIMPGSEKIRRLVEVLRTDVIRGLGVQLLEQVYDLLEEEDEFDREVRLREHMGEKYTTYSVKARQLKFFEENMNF
Sequence of Sphingosine 1-phosphate receptor 5 (Q9H228 whole entry): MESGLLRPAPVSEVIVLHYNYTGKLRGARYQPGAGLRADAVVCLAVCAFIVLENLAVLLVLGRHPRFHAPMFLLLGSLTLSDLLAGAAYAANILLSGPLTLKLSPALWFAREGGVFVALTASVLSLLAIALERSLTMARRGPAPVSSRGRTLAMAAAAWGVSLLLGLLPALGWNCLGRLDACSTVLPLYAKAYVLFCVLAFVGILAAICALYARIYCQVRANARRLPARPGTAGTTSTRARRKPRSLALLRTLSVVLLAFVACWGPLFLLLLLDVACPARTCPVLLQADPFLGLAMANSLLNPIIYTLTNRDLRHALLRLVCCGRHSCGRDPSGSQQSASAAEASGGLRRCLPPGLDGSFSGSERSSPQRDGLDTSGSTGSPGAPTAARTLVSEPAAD
Sequence of Sphingosine 1-phosphate receptor 3 (Q99500 whole entry): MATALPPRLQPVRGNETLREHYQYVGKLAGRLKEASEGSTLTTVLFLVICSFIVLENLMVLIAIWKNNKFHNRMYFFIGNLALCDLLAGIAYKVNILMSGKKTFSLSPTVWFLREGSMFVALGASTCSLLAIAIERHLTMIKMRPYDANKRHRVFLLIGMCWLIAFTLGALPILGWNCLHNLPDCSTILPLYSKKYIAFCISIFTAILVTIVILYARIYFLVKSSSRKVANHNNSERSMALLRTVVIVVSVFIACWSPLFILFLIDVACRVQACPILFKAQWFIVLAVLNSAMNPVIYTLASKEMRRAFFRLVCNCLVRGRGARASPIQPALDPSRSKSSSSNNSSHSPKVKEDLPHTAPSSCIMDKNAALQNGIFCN
Sequence of Inhibitor of nuclear factor kappa-B kinase subunit beta (O14920 whole entry): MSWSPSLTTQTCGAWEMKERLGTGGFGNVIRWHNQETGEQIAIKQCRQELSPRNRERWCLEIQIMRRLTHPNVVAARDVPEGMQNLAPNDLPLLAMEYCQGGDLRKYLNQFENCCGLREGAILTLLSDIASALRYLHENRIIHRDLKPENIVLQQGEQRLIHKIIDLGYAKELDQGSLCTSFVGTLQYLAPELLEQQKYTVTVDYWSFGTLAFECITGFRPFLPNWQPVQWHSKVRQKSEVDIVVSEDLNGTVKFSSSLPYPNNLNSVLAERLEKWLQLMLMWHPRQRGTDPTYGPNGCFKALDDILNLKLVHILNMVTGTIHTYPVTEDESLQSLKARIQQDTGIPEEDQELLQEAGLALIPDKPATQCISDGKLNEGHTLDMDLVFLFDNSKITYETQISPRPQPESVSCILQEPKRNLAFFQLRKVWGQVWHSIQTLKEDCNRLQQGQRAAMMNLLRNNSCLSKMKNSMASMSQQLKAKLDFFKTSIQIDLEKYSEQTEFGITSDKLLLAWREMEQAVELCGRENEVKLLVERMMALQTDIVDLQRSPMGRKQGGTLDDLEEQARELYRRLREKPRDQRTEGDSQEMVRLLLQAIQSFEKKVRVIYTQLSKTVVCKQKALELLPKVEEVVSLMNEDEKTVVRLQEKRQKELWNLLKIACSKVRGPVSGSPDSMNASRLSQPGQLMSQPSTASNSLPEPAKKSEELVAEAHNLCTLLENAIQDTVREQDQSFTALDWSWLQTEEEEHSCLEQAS

## COc1ccc(S(=O)(=O)N(C)C[C@@H]2Oc3c(NC(=O)Nc4cccc5ccccc45)cccc3C(=O)N([C@@H](C)CO)C[C@H]2C)c(OC)c1
[1]
  AC50: 74.1 µM (active)
[2]
  AC50: 27.7 µM (active)
[3]
  AC50: > 260 µM (inactive)
[4]
  AC50: 45.5 µM (active)

## c1ccc(Cn2cc(-c3ccc4[nH]nc(-c5ccccc5)c4c3)nn2)cc1
[5]
  Ki: 0.00398 µM (active)
[6]
  Ki: 0.02 µM (active)
[7]
  Ki: 0.2 µM (active)
[8]
  Ki: 0.0398 µM (active)
[9]
  Ki: 0.0316 µM (active)
[10]
  Ki: 0.251 µM (active)
[11]
  Ki: 0.631 µM (active)
[12]
  Ki: 3.98 µM (active)
[13]
  Ki: 0.00794 µM (active)

## CC/N=C1/SC(=Cc2cc(C)n(Cc3ccccc3OC)c2C)C(=O)N1CC
[14]
  EC50: 0.18 µM (active)
[15]
  EC50: 0.106 µM (active)
[16]
  EC50: 13.7 µM (inactive)

## O=C(Nc1ccccc1N1CCOCC1)c1ccc([N+](=O)[O-])o1
[17]
  AC50: 3.63 µM (active)
[18]
  EC50: 4.18 µM (active)
[19]
  AC50: 11.9 µM (active)
[20]
  EC50: 25.3 µM (active)

## CCC(CO)Nc1nc(NCc2ccccc2)c2ncn(C(C)C)c2n1 (stereo not drawn) [(RS)-ROSCOVITINE]
[21]
  Ki: > 2 µM (inactive)
[22]
  Ki: > 3.98 µM (inactive)
[23]
  Ki: > 7.94 µM (inactive)
[24]
  Ki: > 3.98 µM (inactive)
[25]
  Ki: > 7.94 µM (inactive)
[9]
  Ki: > 3.16 µM (inactive)
[26]
  Ki: > 7.94 µM (inactive)
[27]
  Ki: > 3.16 µM (inactive)
[28]
  Ki: 1.58 µM (active)
[29]
  Ki: > 6.31 µM (inactive)
[30]
  Ki: > 7.94 µM (inactive)
[31]
  Ki: > 5.01 µM (inactive)
[32]
  Ki: > 10 µM (inactive)
